Entries after “also recorded” stand apart in the source; their conditions may differ.

Consider four molecules from patent US20220241369A1, “COMPOSITIONS AND METHODS OF MODULATING INFLAMMATION” (La Jolla Institute for Allergy and Immunology, priority 2018, published 2022).

In experiment [1] the test system is OVA-induced food allergy (allergic diarrhea). The experiment can be described thus: IgE-mediated experimental food allergy, i.g. pretreatment with HRF inhibitor before each OVA challenge. It counts as in vivo, mouse. Here is the method: FIGS. 1A-1I show GST-N19 inhibits the development of diarrhea and intestinal mastocytosis in murine food allergy. Mice were i.p. sensitized with OVA ([…]) plus alum on days 0 and 14. From day 28, mice were i.g. challenged with OVA (50 mg) three times a week. Sensitized mice were either non-pretreated (−) or i.g. pretreated with 100 μg of GST or GST-N19 (N19). (FIG. 1A) Procedure scheme. (FIG. 1B) The development of diarrhea was monitored for 90 min after each OVA challenge. (n=5 for non-sensitized group, n=3 for inhibitor non-pretreated group, n=4 for GST group, n=6 for N19 group, data are representative of at least 3 independent experiments) Log-rank test: p=0.028 (GST vs. GST-N19), p=0.036 (control vs. GST-N19). […] (FIG. 1C-FIG. 1E) Total IgE, IgG1, HRF, and HRF-reactive IgE and IgG in sera were measured by ELISA. (FIG. 1F) Serum mMCP-1 was also measured by ELISA. (FIG. 1G) Sections of jejunum were stained with chloroacetate esterase to identify mast cells. Sections indicated by rectangles are enlarged in lower rows. Bar=100 μm in large pictures and 50 μm in insets. (FIG. 1H) Flow cytometry was performed to enumerate MMC9s (Lin^−c-Kit^+ST2^+IL-17RB^−Integrin β7^lo) in jejunum. (n=14 for non-sensitized group, n=15 for inhibitor non-pretreated group, n=9 for GST group, n=9 for GST-N19 group, pooled data of 3 independent experiments) (FIG. 1I) Cytokine mRNAs in jejunum were quantified by qRT-PCR. *, **: p<0.05, p<0.01 by ANOVA with Tukey's multiple comparison.
Mice were i.p. sensitized with OVA (50 μg/mouse) plus alum on days 0 and 14. From day 28, mice were i.g. challenged with OVA (25 or 50 mg) or PBS (control) three times a week. Before each challenge, mice were starved for 3 h, then i.g. pretreated with GST, GST-N19 (100 μg/mouse), synthetic N19 peptide, or HRF-2CA. The development of diarrhea was monitored for 90 min after OVA challenge. Diarrhea severity (30) was based on states of stool: solid (score 0), funicular (score 1), slurry (score 2), and watery (score 3).
For histologic analysis, jejunal tissue was fixed in 10% formalin. Mast cells in jejunal sections were detected by chloroacetate esterase staining. IgE, IgG, IgG1, IgG2a, mMCP-1, HRF, HRF-reactive IgE, and HRF-reactive IgG 24 h after the last OVA challenge were measured by ELISA (see Supplemental Information). Cytokine mRNAs in jejunum were quantified by qRT-PCR.
Twenty-four hours after the last OVA challenge, mice were sacrificed and small intestines (0.5-15 cm from stomach) were collected. The intestinal tissues were opened longitudinally and washed with HBSS. The washed tissues were incubated with 5 mM EDTA-HBSS for 30 min at 4° C., transferred to 30 ml HBSS in 50 ml tubes, and vigorously shaken to remove intestinal epithelial cells. The tissues were then washed with 10 ml of 10% FCS RPMI medium. Tissues were cut into tiny pieces and incubated with 2.4 mg/ml Collagenase D and 0.2 mg/ml DNase for 30 min at 37° C. Then cells were washed, resuspended in 44% Percoll solution, and slowly loaded on the top of 67% Percoll solution. The cells were centrifuged (1800 rpm, 20 min) and lymphocyte fractions were collected and used for detection of MMC9s (Lin^−c-Kit^+ST2^+IL-17RB^−Integrin β7^lo).
The cells were first incubated with 2.4G2 for 15 min at 4° C. and further incubated with Abs (PE-anti-07 integrin mAb (clone FIB504), PerCP/Cy5.5-anti-CD4 mAb (clone RM4-5), PerCP/Cy5.5-anti-CD8 mAb (clone 53-6.7), PerCP/Cy5.5-anti-CD11b mAb (clone M1/70), PerCP/Cy5.5-anti-CD11c mAb (clone N418), PerCP/Cy5.5-anti-B220 mAb (RA3-6B2), PerCP/Cy5.5-anti-Ly-6G/Ly-6C mAb (clone RB6-8C5), PerCP/Cy5.5-anti-CD335 mAb (clone 29A1.4), AlexaFluor647-anti-IL-17RB (clone 9B10), APC/Cy7-anti-CD117 (clone 2B8), Biotin-anti-ST2 (clone DIH9)) (Biolegend) for 30 min at 4° C. After washed, the cells were incubated with SA-BV421 (Biolegend) for 30 min at 4° C. MMC9 population was identified using FACS Canto. Data were analyzed using FlowJo software.

A further experiment concerns IgE+ mMCP-1+ mast cells. The experiment can be described thus: Localization of gavaged HRF inhibitors in jejunum by confocal microscopy. It counts as in vivo, mouse. Here is the method: HRF multimers in the jejunum of non-sensitized/OVA challenged (Cont, n=6) or OVA-sensitized/OVA-challenged (OVA, n=5) mice were quantified by a newly developed ELISA (FIG. 3A, FIG. 3C). HRF was also measured by ELISA (FIG. 3B). HRF dimer and monomer were quantified by western blotting in control (Cont) and food allergic mice treated without (OVA) or with GST (GST) or GST-N19 (N19) (n=5 for each group) (FIG. 3D). Allergic diarrhea was induced by 6 challenges. On the day of 7th challenge, the mice were gavaged with 0.1 mg of GST or GST-N19 (FIG. 3E). One hour later, mice were sacrificed without OVA challenge. Jejunum tissues were stained for GST, IgE, and mMCP-1 before confocal microscopy (n=5 for GST and n=6 for GST-N19). Arrows indicate cells positive for GST or GST-N19 as well as IgE and mMCP-1. […] Bars=50 μm.
Jejunum biopsy was fixed in 4% paraformaldehyde at 4° C., washed in 10-20% sucrose in phosphate buffered saline, and embedded in O.C.T. compound (Sakura Finetek, Japan). Cyrosections were made in 6 μm and blocked with 2% skim milk. Immunostaining was performed with anti-HRF (rabbit polyclonal FL-172), anti-GST (rabbit polyclonal Z-5) (Santa Cruz Biotechnology), anti-IgE (clone RME-1 from Biolegend and clone R35-72 from BD Biosciences), anti-mMCP1 (Catalog #AF5146, R&D Systems), anti-CD45 (clone 30-F11), anti-CD63 (clone NVG-2) (Biolegend), and anti-Siglec F (clone E50-2440, BD Biosciences) as primary antibodies, and anti-Rabbit Alexa Fluor 647 (Catalog #A21245), anti-Rat Alexa Fluor 568 (Catalog #A11077), and anti-Sheep Alexa Fluor 555 (Catalog #A11015) (Thermo Fisher Scientific) as secondary antibodies. Coverslips were mounted with Prolong Gold with DAPI (Thermo Fisher Scientific) and fluorescence was observed under Leica TCS SP2 confocal microscopy (Leica) and Nuance Multi spectral Imaging System (PerkinElmer).
Applicant next tested whether HRF inhibitors target mucosal mast cells. To this end, mice with allergic diarrhea were i.g. gavaged with GST-N19 or GST, and their location was identified 1 h after their gavage.

Experiment [2] deals with sensitization phase of murine food allergy. The experiment can be described thus: Pretreatment with HRF inhibitor before sensitization with OVA plus alum. Type of experiment: in vivo, mouse. The settings on record: 100 μg i.g. one day before i.p. immunization on days 0 and 14. Here is the method:
Mice were i.g. pretreated with 100 μg of GST, GST-N19, HRF-2CA or PBS (OVA) one day before i.p. immunization with OVA plus alum on days 0 and 14. From day 28, mice were i.g. challenged with OVA three times a week. (FIG. 9A) Procedure scheme. (FIG. 9B) The development of diarrhea was monitored after OVA challenge. (n=5 for OVA, n=4 for GST, n=5 for N19, n=5 for 2CA, and n=3 each for unsensitized pretreated groups (not shown)). (FIG. 9C, FIG. 9D) Total IgE and IgG1 were measured by ELISA.
Whether HRF inhibitors affect the sensitization phase of food allergy was tested.

Experiment [3] deals with Raw264.7 murine macrophages. The experiment can be described thus: HRF secretion into culture supernatant, western blot, macrophages. The settings on record: stimulated overnight, 20 or 100 ng/ml. Type of experiment: cell-based, mouse. Here is the method: (§1) FIGS. 4A-4C show HRF is secreted by various cells. CMT-93 murine intestinal epithelial cells (FIG. 4A) and NIH/3T3 murine fibroblasts (FIG. 4B) and Raw264.7 murine macrophages (FIG. 4C) were stimulated overnight with low (20 ng/ml) and high (100 ng/mL) concentrations of various cytokines. HRF secreted into culture supernatants was detected by western blotting. Med and US denote medium only and supernatant from unstimulated cells, respectively. −DTT and +DTT indicate SDS gels were run under non-reducing and reducing conditions, respectively. Gel portions of containing the 23 kDa HRF monomer are shown except that a larger portion of the non-reducing gel is shown in panel C. Arrow indicates the position of HRF dimer, which disappeared under reducing conditions.
(§2) The following cell lines were cultured in DMEM plus 10% FCS except for U-937 cells which were cultured in RPMI1640 plus 10% FCS: CMT-93 mouse and Caco-2 (with 20% FCS) human intestinal epithelial cell lines; NIH/3T3 mouse fibroblast line; Raw 264.7 mouse and U-937 human macrophage lines; BEAS-2B human bronchial epithelial cell line; 293T human embryonic kidney cell line (obtained from ATCC, Manassas, Va., except for NIH/3T3, which was provided by S. A. Aaronson, NIH). Fibroblast-like stromal cells were cultured from small intestines of BALB/c mice in DMEM/10% FBS. CD4^+ T and B cells were purified from mouse spleens using BD IMag™ Mouse CD4 and B cells enrichment set-DM. Low-density bone-marrow cells were cultured in the presence of 100 ng/ml of stem cell factor (PeproTech) and 100 ng/ml of FLT-3 ligand (R&D Systems) for 4 days, and with 10 ng/mL of IL-5 (R&D Systems) thereafter for 10 days to obtain bone marrow-derived eosinophils (44). Bone marrow cells were cultured in the presence of 20 ng/ml of GM-CSF for 6 days and adherent cells were collected as bone marrow-derived macrophages. Non-adherent cells were further cultured with 5 ng/ml GM-CSF and the non-adherent cells were collected as bone marrow-derived dendritic cells. […]
(A western blot detects proteins with antibodies after separation by electrophoresis.)

For experiment [4], the system named is CMT-93 murine intestinal epithelial cells. As to the kind of experiment: HRF secretion into culture supernatant, western blot, CMT-93. Type of experiment: cell-based, mouse. The settings on record: stimulated overnight, 20 or 100 ng/ml. As for the experimental part: as §1, §2
Experiment [5] deals with BEAS-2B human bronchial epithelial cells. As to the kind of experiment: HRF secretion, western blot, BEAS-2B. Type of experiment: cell-based. The settings on record: combination of HDM and cytokine, 24 h. An excerpt:
As lung epithelial cells are exposed to the environment, HRF secretion was studied using BEAS-2B human bronchial epithelial cells. A small amount of HRF was secreted constitutively, but house dust mite allergens induced the secretion of high-molecular-weight HRF species (HMW-HRFs). Various cytokines including epithelial derived cytokines as well as Th2 cytokines and proinflammatory cytokines further enhanced HDM-induced secretion of HMW-HRFs.
Cultured cells were scraped and treated with adenosine and ATP, which should be abundantly present in inflammatory or injured tissues. These conditions induced secretion of HRF monomer, dimer and HMW-HRFs like stimulation with HDM plus cytokines.
Culture supernatants were analyzed by SDS-PAGE under nonreducing (−DTT) and reducing (+DTT) conditions, followed by western blotting for HRF probing. HDM-induced HRF secretion was enhanced not only by Th2 cytokines (IL-4, IL-5, and IL-13), but also by epithelial derived cytokines (IL-25, IL-33, and TSLP) and proinflammatory cytokines (IL-1beta, IL-6 and TNF). med, medium alone; US, unstimulated; HDM, house dust mite; CR, cockroach; RW, ragweed; Af, Aspergillus fumigatus. Arrowhead, HRF monomer.

The next experiment addresses anti-TNP IgE C38-2. The experiment can be described thus: cell-based or functional assay.
Where [6] appears, read: sensitized mice pretreated i.g. with 100 μg before each OVA challenge.

Consider “GST-N19: GST-tagged N-terminal 19 amino acids of HRF; HRF inhibitor”, for which the “serum mMCP-1 level” value in experiment [1] (i.g. pretreatment before each OVA challenge, ELISA) is “reduced”. For the same molecule, the “number of mucosal mast cells in jejunum (intestinal mastocytosis)” value in experiment [1] (i.g. pretreatment before each OVA challenge, chloroacetate esterase staining) was “inhibits; also recorded: reduced”. In experiment [1] (i.g. pretreatment, flow cytometry), the MMC9s in jejunum entry is “reduced”. In addition, the “Th2 cytokine mRNAs (Il4 and Il13) in jejunum” value in experiment [1] (i.g. pretreatment, qRT-PCR) is listed as “repressed”. Moreover, in experiment [1] (i.g. pretreatment, serum ELISA), the “levels of total IgE, IgG1, IgG2a or HRF-reactive IgE and IgG” value was “not reduced”. In addition, in experiment [1] (setting [6]), the “diarrhea occurrence / incidence” value was “inhibits; also recorded: reduced” and the onset of diarrhea entry was “delayed”. In addition, in the experiment with IgE+ mMCP-1+ mast cells (after i.g. gavage), the “targeting of mast cells in jejunum” value was “preferentially targets”. The “IgE+ mMCP-1+ mast cells co-localized with the substance” value with IgE+ mMCP-1+ mast cells (mice with allergic diarrhea, 1 h after i.g. gavage of 0.1 mg, anti-GST staining) is given as “about 65%”. The “sensitization phase of murine food allergy” value in experiment [2] is recorded as “do not affect”.

For the molecule IL-6: proinflammatory cytokine, the “secretion of HRF monomer” value in experiment [3] is on record as “increased”. In addition, the HRF secretion entry in experiment [4] is given as “strongly induced”. Besides, the “HDM-induced HRF secretion” value in experiment [5] is reported as “enhanced”.

Turning to IL-13: Th2 cytokine, the HRF dimer entry in experiment [3] (non-reducing gel) is “increased”. For the same molecule, the HRF secretion entry in experiment [4] is “strongly induced”. Besides, the “HDM-induced HRF secretion” value in experiment [5] was “enhanced”.

B1: recombinant dimeric murine HRF (HRF-His6, Sephacryl fraction Fr1) (ligand)
chain: MIIYRDLISHDELFSDIYKIREIADGLCLEVEGKMVSRTEGAIDDSLIGGNASAEGPEGEGTESTVVTGVDIVMNHHLQETSFTKEAYKKYIKDYMKSLKGKLEEQKPERVKPFMTGAAEQIKHILANFNNYQFFIGENMNPDGMVALLDYREDGVTPFMIFFKDGLEMEKCHHHHHH
modifications: disulfide bond Cys172-Cys172 between the two monomers
B1: in the experiment with anti-TNP IgE C38-2, the EC50 of antigen TNP3-BSA for IL-13 release from C38-2-sensitized mouse BMMCs in the presence of 25 µg/ml mHRF dimer (156 ng/ml for 0 µg/ml mHRF dimer) turned out to be 0.124 µg/mL and the EC50 of antigen TNP3-BSA for IL-13 release from C38-2-sensitized mouse BMMCs in the presence of 50 µg/ml mHRF dimer (156 ng/ml for 0 µg/ml mHRF dimer) was 0.092 µg/mL.
